Literature values as cited in patent US20220331268A1, “TREATMENT OF SKIN DISORDERS WITH TOPICAL COMBINATION COMPOSITIONS COMPRISING TAPINAROF AND AN ADDITIONAL AHR ACTIVATOR” (Sol-Gel Technologies Ltd., priority 2019, published 2022).

Experiments:
[1] = 1% tapinarof arm compared with 0.5% arm or vehicle
[2] = across all groups treated
[3] = psoriasis treatment, single drug; placebo 20.2%
[4] = tested on: interleukin-6 and interleukin-17A; conditions: mouse models and in vitro human skin studies

| SMILES | efficacy [1] | onset of action [1] | contact dermatitis (side-effect, among most common) [2] [%] | folliculitis (side-effect) [2] [%] | adverse effects [3] [%] | effect on proinflammatory mediators including interleukin-6 and interleukin-17A [4] | skin barrier function [4] |
| --- | --- | --- | --- | --- | --- | --- | --- |
| CC(C)c1c(O)cc(/C=C/c2ccccc2)cc1O [Tapinarof, 3,5-dihydroxy-4-isopropyl-trans-stilbene] | higher efficacy | quicker onset of action | > 5 | 9 | 44.5 | inhibit | enhance skin barrier function |
| C=C1/C(=C\C=C2/CCC[C@]3(C)[C@@H]([C@H](C)/C=C/[C@@H](O)C4CC4)CC[C@@H]23)C[C@@H](O)C[C@@H]1O [calcipotriene] | – | – | – | – | 19.5 | – | – |
